Experimental findings from ChEMBL document CHEMBL3856255, “Synthesis and biological evaluation of Hederacolchiside A1 derivatives as anticancer agents” (Bioorg Med Chem Lett, 2016) are described below.

Series [1] is described as follows: Cytotoxicity against human SMMC7721 cells assessed as reduction in cell viability after 48 hrs by MTT assay. To be noted: SMMC-7721, 48 h. In kind it is functional, cell-based.
Series [2] relates to Mus musculus. Kind of series: Toxicity in mouse assessed as death time administered as submicron emulsions through caudal vein injection dosed daily. In kind it is organism-based. Particulars: in vivo, iv.
The nature of series [3]: Cytotoxicity against human NCI-H460 cells assessed as reduction in cell viability after 48 hrs by MTT assay. To be noted: NCI-H460, 48 h. In kind it is functional, cell-based.
A short description of series [4]: Cytotoxicity against human SGC7901 cells assessed as reduction in cell viability after 48 hrs by MTT assay. To be noted: SGC-7901, 48 h. In kind it is functional, cell-based.
Series [5] is described as follows: Cytotoxicity against human U251 cells assessed as reduction in cell viability after 48 hrs by MTT assay. In kind it is functional, cell-based. To be noted: U-251, 48 h.
The nature of series [6]: Cytotoxicity against human HCT116 cells assessed as reduction in cell viability after 48 hrs by MTT assay. In kind it is functional, cell-based. Particulars: HCT-116, 48 h.
Series [7] can be described thus: Cytotoxicity against human SKOV3 cells assessed as reduction in cell viability after 48 hrs by MTT assay. In kind it is functional, cell-based. Particulars: SK-OV-3, 48 h.
For series [8], the system named is Mus musculus. Kind of series: Toxicity in nude mouse xenografted with […] cells assessed as body weight level at 10 mg/kg administered as submicron emulsions through caudal vein injection dosed daily for 14 days (reference value: 42.63 +/- 5.81 g). In kind it is organism-based. Particulars: in vivo, iv, 336 h.
Series [9] relates to Mus musculus. Nature of the series: Toxicity in nude mouse xenografted with […] cells assessed as induction of mouse mortality at 20 mg/kg administered as submicron emulsions through caudal vein injection dosed daily for 14 days. Particulars: in vivo, iv, 336 h. In kind it is organism-based.
A short description of series [10]: Antitumor activity against H22 cells xenografted in nude mouse assessed as tumor growth inhibition at 10 mg/kg administered as submicron emulsions through caudal vein injection dosed daily for 14 days. Particulars: H22, 336 h; read-out: TGI. In kind it is functional.
The nature of series [11]: Antitumor activity against H22 cells xenografted in nude mouse assessed as tumor growth inhibition at 20 mg/kg administered as submicron emulsions through caudal vein injection dosed daily for 14 days. In kind it is functional. To be noted: H22, 336 h; read-out: TGI.
Series [12] concerns Mus musculus. Kind of series: Toxicity in nude mouse xenografted with […] cells assessed as body weight level at 20 mg/kg administered as submicron emulsions through caudal vein injection dosed daily for 14 days (reference value: 42.63 +/- 5.81 g). In kind it is organism-based. To be noted: in vivo, iv, 336 h.
Series [13] relates to Mus musculus. Kind of series: Toxicity in nude mouse xenografted with […] cells assessed as induction of mouse mortality at 10 mg/kg administered as submicron emulsions through caudal vein injection dosed daily for 14 days. In kind it is organism-based. Particulars: in vivo, iv, 336 h.
The test system of series [14] is Mus musculus. Kind of series: Toxicity in nude mouse xenografted with […] cells assessed as body weight level at 6 mg/kg administered as submicron emulsions through caudal vein injection dosed every 3 days for 14 days (reference value: 42.63 +/- 5.81 g). In kind it is organism-based. To be noted: in vivo, iv.
Series [15] in a line: Cytotoxicity against human SMMC7721 cells assessed as reduction in cell viability after 24 hrs by MTT assay. To be noted: SMMC-7721, 24 h. In kind it is functional, cell-based.
Series [16] in a line: Cytotoxicity against human SKOV3 cells assessed as reduction in cell viability after 24 hrs by MTT assay. Particulars: SK-OV-3, 24 h. In kind it is functional, cell-based.
A short description of series [17]: Cytotoxicity against human HCT116 cells assessed as reduction in cell viability after 24 hrs by MTT assay. In kind it is functional, cell-based. To be noted: HCT-116, 24 h.
Series [18] can be described thus: Cytotoxicity against human U251 cells assessed as reduction in cell viability after 24 hrs by MTT assay. In kind it is functional, cell-based. Particulars: U-251, 24 h.
Series [19] is described as follows: Cytotoxicity against human NCI-H460 cells assessed as reduction in cell viability after 24 hrs by MTT assay. In kind it is functional, cell-based. Particulars: NCI-H460, 24 h.
Series [20] is described as follows: Cytotoxicity against human SGC7901 cells assessed as reduction in cell viability after 24 hrs by MTT assay. In kind it is functional, cell-based. Particulars: SGC-7901, 24 h.
The nature of series [21]: Antitumor activity against H22 cells xenografted in nude mouse assessed as tumor growth inhibition at 6 mg/kg administered as submicron emulsions through caudal vein injection dosed every 3 days for 14 days. In kind it is functional. Particulars: read-out: TGI.
Series [22] in a line: Toxicity in mouse assessed as tolerance dose administered as submicron emulsions through caudal vein injection dosed daily for 7 days. To be noted: in vivo, iv, read-out: Activity. In kind it is organism-based.

With `C[C@@H]1O[C@@H](O[C@H]2[C@H](O[C@H]3CC[C@]4(C)[C@H]5CC=C6[C@@H]7CC(C)(C)CC[C@]7(C(=O)OCC(=O)O)CC[C@@]6(C)[C@]5(C)CC[C@H]4C3(C)C)OC[C@H](O[C@@H]3O[C@H](CO)[C@@H](O)[C@H](O)[C@H]3O)[C@@H]2O)[C@H](O)[C@H](O)[C@H]1O`, the IC50 in series [1] stood at 2.2 µM; in series [3], 1.8 µM; in series [4], 3.3 µM; in series [5] it was 2 µM; in [6] it was 3.9 µM; in series [7], 2.7 µM. In addition, the Time in series [2] came out at 7 days.
On to `C[C@@H]1O[C@@H](O[C@H]2[C@H](O[C@H]3CC[C@]4(C)[C@H]5CC=C6[C@@H]7CC(C)(C)CC[C@]7(C(=O)OCCCO)CC[C@@]6(C)[C@]5(C)CC[C@H]4C3(C)C)OC[C@H](O[C@@H]3O[C@H](CO)[C@@H](O)[C@H](O)[C@H]3O)[C@@H]2O)[C@H](O)[C@H](O)[C@H]1O`, for which the IC50 in series [1] was over 100 µM; in [3] it was 55.7 µM; in series [4], 47.3 µM; in series [5], 43.5 µM; in series [6], 39.2 µM; in [7] it was over 100 µM.
Regarding `CCOC(=O)[C@]12CCC(C)(C)C[C@H]1C1=CC[C@@H]3[C@@]4(C)CC[C@H](O[C@@H]5OC[C@H](O[C@@H]6O[C@H](CO)[C@@H](O)[C@H](O)[C@H]6O)[C@H](O)[C@H]5O[C@@H]5O[C@@H](C)[C@H](O)[C@@H](O)[C@H]5O)C(C)(C)[C@@H]4CC[C@@]3(C)[C@]1(C)CC2`, the IC50 in series [1] came out at 3.5 µM; in series [3], 2.7 µM; in [4], 4.9 µM; in series [5], 1.6 µM; in [6] it was 5.3 µM; in series [7], 5.8 µM.
With `C[C@@H]1O[C@@H](O[C@H]2[C@H](O[C@H]3CC[C@]4(C)[C@H]5CC=C6[C@@H]7CC(C)(C)CC[C@]7(C(=O)OCCO)CC[C@@]6(C)[C@]5(C)CC[C@H]4C3(C)C)OC[C@H](O[C@@H]3O[C@H](CO)[C@@H](O)[C@H](O)[C@H]3O)[C@@H]2O)[C@H](O)[C@H](O)[C@H]1O`, the IC50 in series [1] turned out to be 35.6 µM; in series [3], 46.7 µM; in series [4] it was 20.6 µM; in series [5] it was 13.4 µM; in [6], 25.6 µM; in series [7] it was 19.7 µM.
Take `C[C@@H]1O[C@@H](O[C@H]2[C@H](O[C@H]3CC[C@]4(C)[C@H]5CC=C6[C@@H]7CC(C)(C)CC[C@]7(C(=O)OCCC(=O)O)CC[C@@]6(C)[C@]5(C)CC[C@H]4C3(C)C)OC[C@H](O[C@@H]3O[C@H](CO)[C@@H](O)[C@H](O)[C@H]3O)[C@@H]2O)[C@H](O)[C@H](O)[C@H]1O`: the IC50 in [1] stood at 2.7 µM; in [3] it was 9.8 µM; in [4], 6.5 µM; in series [5], 4.6 µM; in series [6], 11.1 µM; in series [7] it was 5.4 µM.
Turning to `CNC(=O)[C@]12CCC(C)(C)C[C@H]1C1=CC[C@@H]3[C@@]4(C)CC[C@H](O[C@@H]5OC[C@H](O[C@@H]6O[C@H](CO)[C@@H](O)[C@H](O)[C@H]6O)[C@H](O)[C@H]5O[C@@H]5O[C@@H](C)[C@H](O)[C@@H](O)[C@H]5O)C(C)(C)[C@@H]4CC[C@@]3(C)[C@]1(C)CC2`, the IC50 in [1] was over 100 µM; in series [3] it was over 100 µM; in series [4], 55.8 µM; in series [5], 46.7 µM; in series [6], 41.9 µM; in series [7] it was over 100 µM.
`CCCOC(=O)[C@]12CCC(C)(C)C[C@H]1C1=CC[C@@H]3[C@@]4(C)CC[C@H](O[C@@H]5OC[C@H](O[C@@H]6O[C@H](CO)[C@@H](O)[C@H](O)[C@H]6O)[C@H](O)[C@H]5O[C@@H]5O[C@@H](C)[C@H](O)[C@@H](O)[C@H]5O)C(C)(C)[C@@H]4CC[C@@]3(C)[C@]1(C)CC2`: the IC50 in [1] amounted to 4.7 µM; in series [3], 8.3 µM; in series [4], 11.9 µM; in [5], 1.8 µM; in [6], 9.7 µM; in series [7], 12.3 µM.
For the compound `C[C@@H]1O[C@@H](O[C@H]2[C@H](O[C@H]3CC[C@]4(C)[C@H]5CC=C6[C@@H]7CC(C)(C)CC[C@]7(C(=O)OCCCC(=O)O)CC[C@@]6(C)[C@]5(C)CC[C@H]4C3(C)C)OC[C@H](O[C@@H]3O[C@H](CO)[C@@H](O)[C@H](O)[C@H]3O)[C@@H]2O)[C@H](O)[C@H](O)[C@H]1O`, the IC50 worked out at 8.3 µM in series [1]; 14.1 µM in [3]; 7.4 µM in series [4]; 11.7 µM in series [5]; 20.2 µM in series [6]; 9.6 µM in [7].
For the compound `COC(=O)[C@]12CCC(C)(C)C[C@H]1C1=CC[C@@H]3[C@@]4(C)CC[C@H](O[C@@H]5OC[C@H](O[C@@H]6O[C@H](CO)[C@@H](O)[C@H](O)[C@H]6O)[C@H](O)[C@H]5O[C@@H]5O[C@@H](C)[C@H](O)[C@@H](O)[C@H]5O)C(C)(C)[C@@H]4CC[C@@]3(C)[C@]1(C)CC2`, the IC50 was 3.5 µM in [1]; 1.3 µM in [3]; 1.7 µM in series [4]; 1.1 µM in [5]; 4.6 µM in series [6]; 3.1 µM in [7]. Moreover, the Time in series [2] was over 7 days. Also, the Activity is 41.05 g in series [8], “Non-Toxic” in series [9], 39.74 g in [12] and “Non-Toxic” in series [13]. The inhibition in vivo at 10 mg/kg in series [10] is 36.2%. Moreover, in series [11], the inhibition in vivo at 20 mg/kg was 46.8%.
With `C[C@@H]1O[C@@H](O[C@H]2[C@H](O[C@H]3CC[C@]4(C)[C@H]5CC=C6[C@@H]7CC(C)(C)CC[C@]7(C(=O)O)CC[C@@]6(C)[C@]5(C)CC[C@H]4C3(C)C)OC[C@H](O[C@@H]3O[C@H](CO)[C@@H](O)[C@H](O)[C@H]3O)[C@@H]2O)[C@H](O)[C@H](O)[C@H]1O` [HEDERACOLCHISIDE A1], the Activity in series [14] amounted to 41.76 g. Besides, the IC50 in series [15] was determined as 2.8 µM; in [1], 2.8 µM; in [16], 1.3 µM; in series [17], 8.4 µM; in series [18], 2.2 µM; in series [3], 3.7 µM. Also, the IC50 in series [19] stood at 3.7 µM; in [4], 1.7 µM; in [20], 1.7 µM; in series [5], 2.2 µM; in series [6], 8.4 µM; in series [7], 3.3 µM. The Time in series [2] is under 0.042 days. Besides, the inhibition in vivo at 6 mg/kg in series [21] was found to be 47.5%. The MTD at 168 h in [22] is under 8 mg/kg.
